According to ChEMBL document CHEMBL2177009, “The use of novel C-methylated spermidine derivatives to investigate the regulation of polyamine metabolism” (J Med Chem, 2011):

Key:
DU-145 [1] = test: Metabolic stability of the compound in human DU145 cells assessed as metabolites-mediated cell toxicity at 10 uM after 48 hrs by MTT assay in presence of bovine serum amine oxidase; assay type: ADME, cell-based; details: du-145, 48 h
DU-145 [2] = test: Effect on intracellular level of S-adenosyl-Lmethionine in human DU145 cells assessed per million cells at 100 uM after 72 hrs in presence of serum amine oxidase inhibitor aminoguanidine and ODC inhibitor DFMO (RVb = 80 +/- 5 pmol/10^6 cells); assay type: functional
DU-145 [3] = test: Effect on intracellular level of decarboxylated S-adenosyl-L-methionine in human DU145 cells assessed per million cells at 100 uM after 72 hrs in presence of serum amine oxidase inhibitor aminoguanidine and ODC inhibitor DFMO (RVb = 263 +/- 14 pmol/10^6 cells); assay type: functional
[4] = target: T1, Peroxisomal N(1)-acetyl-spermine/spermidine oxidase (Homo sapiens, UniProt Q6QHF9); test: Metabolic stability of the compound assessed as human recombinant APAO-mediated compound degradation at 0.5 to 1 mM after 5 to 60 mins in presence of benzaldehyde; assay type: ADME; details: 1000 µM
T1 sequence (Q6QHF9 whole entry): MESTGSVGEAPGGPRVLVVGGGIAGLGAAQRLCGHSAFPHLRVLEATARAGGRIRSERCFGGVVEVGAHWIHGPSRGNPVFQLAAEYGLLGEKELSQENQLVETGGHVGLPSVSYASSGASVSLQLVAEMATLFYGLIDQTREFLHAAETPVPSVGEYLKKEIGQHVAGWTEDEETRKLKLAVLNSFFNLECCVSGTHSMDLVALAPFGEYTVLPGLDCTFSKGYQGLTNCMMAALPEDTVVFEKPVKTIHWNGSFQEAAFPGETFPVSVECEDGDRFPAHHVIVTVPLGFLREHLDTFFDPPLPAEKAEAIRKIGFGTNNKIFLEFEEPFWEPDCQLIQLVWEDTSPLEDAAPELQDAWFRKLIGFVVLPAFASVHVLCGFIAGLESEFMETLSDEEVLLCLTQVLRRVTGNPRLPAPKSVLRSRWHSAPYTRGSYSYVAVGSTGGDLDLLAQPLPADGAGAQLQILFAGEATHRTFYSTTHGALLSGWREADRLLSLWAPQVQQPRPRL

DU-145 [5] = test: Metabolic stability in N1,N11-diethyl-norspermine pretreated human DU145 cells expressing SSAT assessed as accumulation of acetylated derivatives of compound in medium at 100 uM after 48 hrs; assay type: ADME, cell-based; details: du-145, 48 h
[6] = Cytotoxicity against human DU145 cells assessed as cell growth at 100 uM after 72 hrs in presence of serum amine oxidase inhibitor aminoguanidine (RVb = 49 +/- 2 pmol/10^6 cells); assay type: cell-based, DU-145; details: read-out: Activity
DU-145 [7] = test: Metabolic stability of the compound in human DU145 cells assessed as compound metabolite-mediated cell toxicity at 100 uM after 48 hrs by MTT assay in presence of bovine serum amine oxidase; assay type: ADME, cell-based; details: du-145, 48 h
DU-145 [8] = test: Metabolic stability in human DU145 cells assessed as intracellular compound level per ug DNA at 100 uM after 72 hrs in presence of serum amine oxidases inhibitor aminoguanidine; assay type: ADME, cell-based; details: du-145, 72 h
DU-145 [9] = test: Metabolic stability in human DU145 cells assessed as intracellular putrescine level per ug DNA at 100 uM after 24 hrs in presence of serum amine oxidases inhibitor aminoguanidine (reference value: 11 +/- 2 pmol/ug DNA); assay type: ADME, cell-based; details: du-145, 24 h
DU-145 [10] = test: Metabolic stability in human DU145 cells assessed as intracellular methylspermine level per ug DNA at 100 uM after 24 hrs in presence of serum amine oxidases inhibitor aminoguanidine; assay type: ADME, cell-based; details: du-145, 24 h
DU-145 [11] = test: Metabolic stability in human DU145 cells assessed as intracellular methylspermine level per ug DNA at 100 uM after 48 hrs in presence of serum amine oxidases inhibitor aminoguanidine; assay type: ADME, cell-based; details: du-145, 48 h
DU-145 [12] = test: Metabolic stability in human DU145 cells assessed as intracellular compound level per ug DNA at 100 uM after 24 hrs in presence of serum amine oxidases inhibitor aminoguanidine; assay type: ADME, cell-based; details: du-145, 24 h
DU-145 [13] = test: Metabolic stability in human DU145 cells assessed as intracellular spermine level per ug DNA at 100 uM after 48 hrs in presence of serum amine oxidases inhibitor aminoguanidine (reference value: 133 +/- 4 pmol/ug DNA); assay type: ADME, cell-based; details: du-145, 48 h
DU-145 [14] = test: Metabolic stability in N1,N11-diethyl-norspermine pretreated human DU145 cells expressing SSAT assessed as intracellular accumulation of acetylated derivatives of compound at 100 uM after 48 hrs; assay type: ADME, cell-based; details: du-145, 48 h
DU-145 [15] = test: Metabolic stability in human DU145 cells assessed as intracellular compound/methylspermine level per ug DNA at 100 uM after 72 hrs in presence of serum amine oxidases inhibitor aminoguanidine; assay type: ADME, cell-based; details: du-145, 72 h
DU-145 [16] = test: Metabolic stability in human DU145 cells assessed as intracellular putrescine level per ug DNA at 100 uM after 72 hrs in presence of serum amine oxidases inhibitor aminoguanidine (reference value: 6 pmol/ug DNA); assay type: ADME, cell-based; details: du-145, 72 h
[17] = target: T1, Peroxisomal N(1)-acetyl-spermine/spermidine oxidase; test: Metabolic stability of the compound assessed as human recombinant APAO-mediated compound degradation at 0.5 to 1 mM after 5 to 60 mins; assay type: ADME; details: 1000 µM
DU-145 [18] = test: Metabolic stability in human DU145 cells assessed as intracellular spermine level per ug DNA at 100 uM after 24 hrs in presence of serum amine oxidases inhibitor aminoguanidine (reference value: 122 +/- 11 pmol/ug DNA); assay type: ADME, cell-based; details: du-145, 24 h
DU-145 [19] = test: Metabolic stability in human DU145 cells assessed as intracellular methylspermine level per ug DNA at 100 uM after 72 hrs in presence of serum amine oxidases inhibitor aminoguanidine; assay type: ADME, cell-based; details: du-145, 72 h
DU-145 [20] = test: Metabolic stability in human DU145 cells assessed as intracellular spermine level per ug DNA at 100 uM after 72 hrs in presence of serum amine oxidases inhibitor aminoguanidine (reference value: 154 +/- 7 pmol/ug DNA); assay type: ADME, cell-based; details: du-145, 72 h
DU-145 [21] = test: Metabolic stability in human DU145 cells assessed as intracellular spermidine level per ug DNA at 100 uM after 24 hrs in presence of serum amine oxidases inhibitor aminoguanidine (reference value: 154 +/- 7 pmol/ug DNA); assay type: ADME, cell-based; details: du-145, 24 h
DU-145 [22] = test: Metabolic stability in human DU145 cells assessed as intracellular compound/methylspermine level per ug DNA at 100 uM after 24 hrs in presence of serum amine oxidases inhibitor aminoguanidine; assay type: ADME, cell-based; details: du-145, 24 h
DU-145 [23] = test: Metabolic stability in human DU145 cells assessed as intracellular putrescine level per ug DNA at 100 uM after 48 hrs in presence of serum amine oxidases inhibitor aminoguanidine (reference value: 7 +/- 1 pmol/ug DNA); assay type: ADME, cell-based; details: du-145, 48 h
DU-145 [24] = test: Metabolic stability in human DU145 cells assessed as intracellular spermidine level per ug DNA at 100 uM after 72 hrs in presence of serum amine oxidases inhibitor aminoguanidine (reference value: 137 +/- 3 pmol/ug DNA); assay type: ADME, cell-based; details: du-145, 72 h
DU-145 [25] = test: Metabolic stability in human DU145 cells assessed as intracellular compound/methylspermine level per ug DNA at 100 uM after 48 hrs in presence of serum amine oxidases inhibitor aminoguanidine; assay type: ADME, cell-based; details: du-145, 48 h
DU-145 [26] = test: Metabolic stability in human DU145 cells assessed as intracellular compound level per ug DNA at 100 uM after 48 hrs in presence of serum amine oxidases inhibitor aminoguanidine; assay type: ADME, cell-based; details: du-145, 48 h
DU-145 [27] = test: Metabolic stability in human DU145 cells assessed as intracellular spermidine level per ug DNA at 100 uM after 48 hrs in presence of serum amine oxidases inhibitor aminoguanidine (reference value: 137 +/- 5 pmol/ug DNA); assay type: ADME, cell-based; details: du-145, 48 h
DU-145 [28] = test: Metabolic stability in human DU145 cells assessed as intracellular Ac-8-Methylspermidine level per ug DNA at 100 uM after 72 hrs in presence of serum amine oxidases inhibitor aminoguanidine; assay type: ADME, cell-based; details: du-145, 72 h
DU-145 [29] = test: Metabolic stability in human DU145 cells assessed as intracellular Ac-8-Methylspermidine level per ug DNA at 100 uM after 24 hrs in presence of serum amine oxidases inhibitor aminoguanidine; assay type: ADME, cell-based; details: du-145, 24 h
DU-145 [30] = test: Metabolic stability in human DU145 cells expressing SSAT assessed as accumulation of acetylated derivatives of compound in medium at 100 uM after 48 hrs; assay type: ADME, cell-based; details: du-145, 48 h
DU-145 [31] = test: Metabolic stability in human DU145 cells assessed as intracellular Ac-8-Methylspermidine level per ug DNA at 100 uM after 48 hrs in presence of serum amine oxidases inhibitor aminoguanidine; assay type: ADME, cell-based; details: du-145, 48 h

SMILES | Stability (DU-145 [1]) | Activity (DU-145 [2]) [pmol] | Activity (DU-145 [3]) [pmol] | Stability [4] | Stability (DU-145 [5]) | viability at 72 h, 100 µM [6] [%] | Drug metabolism (DU-145 [8]) [pmol] | Drug metabolism (DU-145 [11]) [pmol] | Drug metabolism (DU-145 [12]) [pmol] | Drug metabolism (DU-145 [13]) [pmol] | Drug metabolism (DU-145 [15]) [pmol] | Drug metabolism (DU-145 [18]) [pmol] | Drug metabolism (DU-145 [19]) [pmol] | Drug metabolism (DU-145 [20]) [pmol] | Drug metabolism (DU-145 [21]) [pmol/ug DNA] | Drug metabolism (DU-145 [22]) [pmol] | Drug metabolism (DU-145 [24]) [pmol] | Drug metabolism (DU-145 [25]) [pmol] | Drug metabolism (DU-145 [26]) [pmol] | Drug metabolism (DU-145 [27]) [pmol/ug DNA] | other results
NCCCCNCCCN [SPERMIDINE] | Stable | 126 | <5 | Unstable | Unstable | 89 |  |  |  |  |  |  |  |  |  |  |  |  |  |  | Stability (DU-145 [7]): Unstable
CC(CN)CNCCCCN.Cl (stereo not given) | Stable | 148 | <5 | Unstable | Unstable | 86 | 134 | 77 | 133 | 72 | 214 | 67 | 80 | 75 | 39 | 200 | 38 | 202 | 135 | 38 | Drug metabolism (DU-145 [9]): < 5 pmol; Drug metabolism (DU-145 [10]): 67 pmol; Stability (DU-145 [14]): Unstable; Drug metabolism (DU-145 [16]): < 5 pmol; Stability [17]: Unstable; Drug metabolism (DU-145 [23]): < 5 pmol
CC(N)CCCNCCCN (stereo not given) | Stable | 138 | 60 | Unstable | Unstable | 93 | 332 | 39 | 257 | 57 | 375 | 83 | 43 | 70 | 30 | 257 | 20 | 326 | 287 | 18 | Stability (DU-145 [14]): Unstable; Drug metabolism (DU-145 [28]): 4 pmol; Drug metabolism (DU-145 [29]): 15 pmol; Stability (DU-145 [30]): Unstable; Stability (DU-145 [7]): Unstable; Drug metabolism (DU-145 [31]): 7 pmol
C[C@H](N)CCNCCCCN | Stable | 177 | 49 | Unstable | Unstable | 84 | 311 | 44 | 264 | 55 | 371 | 62 | 60 | 74 | 15 | 301 | 16 | 283 | 239 | 11 | Drug metabolism (DU-145 [10]): 37 pmol
CC(=O)NCCCNCCCCN |  |  |  |  | Unstable |  |  |  |  |  |  |  |  |  |  |  |  |  |  |  | 
CC(CCN)NCCCCN.Cl (stereo not given) | Stable | 149 | 109 | Stable | Unstable | 91 | 176 |  | 181 | 103 | 176 | 92 |  | 115 | 23 | 181 | 22 | 168 | 168 | 18 | Drug metabolism (DU-145 [9]): < 5 pmol
